Reference: publication PMC7180572, “5-Alkylamino-N-phenylpyrazine-2-carboxamides: Design, Preparation, and Antimycobacterial Evaluation” (Molecules, 2020)
Values after ≈ are worked out from the molar mass of the structure shown. Read-outs that look alike come from different tables or passages of the source.

Legend:
[1] = system: Mycobacterium aurum DSM 43999 (ATCC 23366); test: Microdilution broth, modified Microplate Alamar Blue Assay, whole cell growth inhibition; type: cell-based; settings: for MIC: Mycolicibacterium aurum, read-out: MIC Mycobacterium aurum
[2] = system: Mycobacterium smegmatis DSM 43465 (ATCC 607); test: as above; type: cell-based; settings: for MIC: Mycolicibacterium smegmatis, read-out: MIC Mycobacterium smegmatis
HepG2 cells = test: HepG2 cytotoxicity, CellTiter 96 (MTS) assay; type: cell-based, human; settings: for IC50: read-out: HepG2 IC50; for SI, selectivity index: IC50 (HepG2)/MIC against Mtb H37Ra (in µM)
[3] = system: Mycobacterium tuberculosis H37Ra ITM-M006710 (ATCC 9431); test: Microdilution broth, modified Microplate Alamar Blue Assay, whole cell growth inhibition; type: cell-based; settings: for MIC: Mycobacterium tuberculosis, read-out: MIC Mtb H37Ra
[4] = system: Aspergillus flavus CCM 8363; test: Antifungal microdilution broth method (EUCAST); type: cell-based
[5] = system: Candida albicans ATCC 24433, CCM 8320; test: Antifungal microdilution broth method (EUCAST); type: cell-based
[6] = system: Candida krusei ATCC 6258, CCM 8271; test: Antifungal microdilution broth method (EUCAST); type: cell-based; settings: Pichia kudriavzevii
[7] = system: Candida tropicalis ATCC 750, CCM 8264; test: Antifungal microdilution broth method (EUCAST); type: cell-based
[8] = system: Candida parapsilosis ATCC 22019, CCM 8260; test: Antifungal microdilution broth method (EUCAST); type: cell-based; settings: Lodderomyces parapsilosis
[9] = system: Absidia corymbifera CCM 8077 (Lichtheimia corymbifera); test: Antifungal microdilution broth method (EUCAST); type: cell-based
[10] = system: Trichophyton interdigitale ATCC 9533, CCM 8377; test: Antifungal microdilution broth method (EUCAST); type: cell-based
[11] = system: Aspergillus fumigatus ATCC 204305; test: Antifungal microdilution broth method (EUCAST); type: cell-based
[12] = system: Escherichia coli ATCC 25922, CCM 3954; test: Antibacterial microdilution broth method (EUCAST); type: cell-based; settings: read-out: MIC EC
[13] = system: Staphylococcus epidermidis ATCC 12228, CCM 4418; test: Antibacterial microdilution broth method (EUCAST); type: cell-based; settings: read-out: MIC SE
[14] = system: Staphylococcus aureus spp.aureus ATCC 29213, CCM 4223; test: Antibacterial microdilution broth method (EUCAST); type: cell-based; settings: read-out: MIC SA
[15] = system: Pseudomonas aeruginosa ATCC 27853, CCM 3955; test: Antibacterial microdilution broth method (EUCAST); type: cell-based; settings: read-out: MIC PA
[16] = system: Acinetobacter baumanii ATCC 19606, DSM 30007; test: Antibacterial microdilution broth method (EUCAST); type: cell-based; settings: Acinetobacter baumannii
[17] = system: Klebsiella pneumoniae ATCC 10031, CCM 4415; test: Antibacterial microdilution broth method (EUCAST)
[18] = system: Enterococcus faecalis ATCC 29212, CCM 4224; test: Antibacterial microdilution broth method (EUCAST); type: cell-based; settings: read-out: MIC EF
[19] = system: Staphylococcus aureus methicillin resistant ATCC 43300, CCM 4750; test: microbe, parasite or virus in culture; type: cell-based; settings: ATCC 43300 / CCM 4750 / MRSA, read-out: MIC MRSA
[20] = in vitro, Middlebrook 7H9 broth, resazurin
[21] = CCM8363, 48 h, standards, read-out: MIC against Aspergillus flavus
[22] = 48 h, standards, read-out: MIC against Candida albicans
[23] = 48 h, standards, read-out: MIC against C. krusei
[24] = 48 h, standards, read-out: MIC against C. tropicalis
[25] = 48 h, standards, read-out: MIC against C. parapsilosis
[26] = CCM8077, 48 h, standards, read-out: MIC against Lichtheimia corymbifera
[27] = 72 h, standards, read-out: MIC against Trichophyton interdigitale
[28] = ATCC204305, 48 h, standards, read-out: MIC against Aspergillus fumigatus
[29] = Homo sapiens, HepG2, 24 h incubation, > means higher concentration not reproducible due to precipitation

Compound: 5-Chloro-N-(5-chloro-2-hydroxyphenyl)pyrazine-2-carboxamide [Compound 6]
- MIC Mycobacterium aurum [1, 20]: ≥500 µg/mL
- MIC Mycobacterium smegmatis [2, 20]: ≥500 µg/mL
- IC50 (HepG2 cells; 24 h incubation, > means higher concentration not reproducible due to precipitation): > 250 µM
- MIC Mtb H37Ra [3, 20]: ≥500 µg/mL

Compound: C[C@@H]1[C@H](O)[C@@H](C)/C=C/C=C/C=C/C=C/C=C/C=C/C=C/[C@H](O[C@@H]2O[C@H](C)[C@@H](O)[C@H](N)[C@@H]2O)C[C@@H]2O[C@](O)(C[C@@H](O)C[C@@H](O)[C@H](O)CC[C@@H](O)C[C@@H](O)CC(=O)O[C@H]1C)C[C@H](O)[C@H]2C(=O)O [Amphotericin B, amphotericin B, reference compound]
- MIC [4, 21]: 8 µg/mL
- MIC [5, 22]: 0.5 µg/mL
- MIC ([5]; Table 3, read-out: MIC CA (Candida albicans)): 0.54 µM
- MIC ([5]; Table 3, standard, read-out: MIC CA (Candida albicans)): 0.5 µg/mL
- MIC [6, 23]: 1 µg/mL
- MIC ([6]; Table 3, standard, read-out: MIC CK (Candida krusei)): 1 µg/mL
- MIC ([6]; Table 3, read-out: MIC CK (Candida krusei)): 1.08 µM
- MIC [7, 24]: 1 µg/mL
- MIC [8, 25]: 0.5 µg/mL
- MIC ([8]; Table 3, standard, read-out: MIC CP (Candida parapsilosis)): 0.5 µg/mL
- MIC ([8]; Table 3, read-out: MIC CP (Candida parapsilosis)): 0.54 µM
- MIC [9, 26]: 0.5 µg/mL
- MIC [10, 27]: 2 µg/mL
- MIC [11, 28]: 1 µg/mL

Compound: O=C(Nc1cccc(C(F)(F)F)c1)c1cnc(Cl)cn1 [Compound 1, 5-Chloro-N-(3-(trifluoromethyl)phenyl)pyrazine-2-carboxamide]
- MIC [1, 20]: ≥ 500 µg/mL
- MIC [2, 20]: ≥ 500 µg/mL
- IC50 (HepG2 cells; [29]): 124 µM
- SI, selectivity index (HepG2 cells): 4.78
- MIC [3, 20]: 7.81 µg/mL (≈ 25.9 µM)

Compound: CCCNc1cnc(C(=O)Nc2cccc(C(F)(F)F)c2)cn1 [Compound 1a, 5-(Propylamino)-N-(3-(trifluoromethyl)phenyl)pyrazine-2-carboxamide]
- MIC [1]: ≥ 500 µg/mL
- MIC ([4]; CCM8363, 24 h, read-out: MIC AFla): > 125 µM
- MIC ([4]; CCM8363, 48 h, read-out: MIC AFla): > 125 µM
- MIC ([5]; 24 h, read-out: MIC CA): > 125 µM
- MIC ([5]; 48 h, read-out: MIC CA): > 125 µM
- MIC ([6]; 24 h, read-out: MIC CK): > 125 µM
- MIC ([6]; 48 h, read-out: MIC CK): > 125 µM
- MIC ([12]; 24 h): > 500 µM
- MIC ([12]; 48 h): > 500 µM
- MIC [2]: ≥ 500 µg/mL
- MIC ([7]; 24 h, read-out: MIC CT): > 125 µM
- MIC ([7]; 48 h, read-out: MIC CT): > 125 µM
- MIC ([8]; 24 h, read-out: MIC CP): > 125 µM
- MIC ([8]; 48 h, read-out: MIC CP): > 125 µM
- MIC ([13]; 24 h): > 500 µM
- MIC ([13]; 48 h): > 500 µM
- MIC ([9]; CCM8077, 24 h, read-out: MIC AC): > 125 µM
- MIC ([9]; CCM8077, 48 h, read-out: MIC AC): > 125 µM
- MIC ([14]; 24 h): > 500 µM
- MIC ([14]; 48 h): > 500 µM
- IC50 (HepG2 cells; Homo sapiens, HepG2, 24 h): > 25 µM
- SI, selectivity index (HepG2 cells): >1.3
- MIC [3, 20]: 6.25 µg/mL (≈ 19.3 µM)
- MIC ([15]; 72 h): > 500 µM
- MIC ([15]; 120 h): > 500 µM
- MIC ([16]; 24h): > 500 µM
- MIC ([16]; 48h): > 500 µM
- MIC KP ([17]; 24h): > 500 µM
- MIC KP ([17]; 48h): > 500 µM
- MIC ([18]; 24 h): > 500 µM
- MIC ([18]; 48 h): > 500 µM
- MIC ([19]; 24 h): > 500 µM
- MIC ([19]; 48 h): > 500 µM
- melting point: 155 to 156 °C
- MIC ([10]; 72 h, read-out: MIC TI): > 125 µM
- MIC ([10]; 120 h, read-out: MIC TI): > 125 µM
- MIC ([11]; ATCC204305, 24 h, read-out: MIC AF): > 125 µM
- MIC ([11]; ATCC204305, 48 h, read-out: MIC AF): > 125 µM

Compound: O=C(Nc1cccc(O)c1)c1cnc(Cl)cn1 [Compound 2, 5-Chloro-N-(3-hydroxyphenyl)pyrazine-2-carboxamide]
- MIC [1, 20]: ≥ 500 µg/mL
- MIC [2, 20]: ≥ 500 µg/mL
- IC50 (HepG2 cells; [29]): > 500 µM
- SI, selectivity index (HepG2 cells): >3.99
- MIC [3, 20]: 31.2 µg/mL (≈ 125 µM)

Compound: O=C(Nc1ccc(O)cc1)c1cnc(Cl)cn1 [Compound 3, 5-Chloro-N-(4-hydroxyphenyl)pyrazine-2-carboxamide]
- MIC [1, 20]: ≥ 250 µg/mL
- MIC [2, 20]: ≥ 250 µg/mL
- IC50 (HepG2 cells; [29]): 350 µM
- SI, selectivity index (HepG2 cells): 1.40
- MIC [3, 20]: 62.5 µg/mL (≈ 250 µM)

Compound: Cc1ccc(NC(=O)c2cnc(Cl)cn2)cc1 [Compound 4, 5-Chloro-N-(p-tolyl)pyrazine-2-carboxamide]
- MIC [1, 20]: ≥ 500 µg/mL
- MIC [2, 20]: ≥ 500 µg/mL
- IC50 (HepG2 cells; [29]): > 50 µM
- MIC [3, 20]: ≥ 500 µg/mL

Compound: CCc1ccc(NC(=O)c2cnc(Cl)cn2)cc1 [Compound 5, 5-Chloro-N-(4-ethylphenyl)pyrazine-2-carboxamide]
- MIC [1, 20]: ≥ 500 µg/mL
- MIC [2, 20]: ≥ 500 µg/mL
- IC50 (HepG2 cells; [29]): > 50 µM
- MIC [3]: 250 µg/mL (≈ 955 µM)

Compound: CCCNc1cnc(C(=O)Nc2ccc(Cl)cc2O)cn1 [Compound 6a, N-(4-chloro-2-hydroxyphenyl)-5-(propylamino)pyrazine-2-carboxamide]
- MIC [1, 20]: ≥ 500 µg/mL
- MIC [2, 20]: 3.91 µg/mL (≈ 12.7 µM)
- MIC [3, 20]: ≥ 500 µg/mL
- melting point: 248.9 to 250 °C

Compound: CCCCNc1cnc(C(=O)Nc2ccc(Cl)cc2O)cn1 [Compound 6b, 5-(Butylamino)pyrazine-N-(4-chloro-2-hydroxyphenyl)-2-carboxamide]
- MIC [1, 20]: ≥ 500 µg/mL
- MIC [2, 20]: 3.91 µg/mL (≈ 12.2 µM)
- IC50 (HepG2 cells; [29]): > 50 µM
- MIC [3, 20]: ≥ 500 µg/mL
- melting point: 221.8 to 225.4 °C

Compound: CO[C@H]1/C=C/O[C@@]2(C)Oc3c(C)c(O)c4c(O)c(c(/C=N/N5CCN(C)CC5)c(O)c4c3C2=O)NC(=O)/C(C)=C\C=C\[C@H](C)[C@H](O)[C@@H](C)[C@@H](O)[C@@H](C)[C@H](OC(C)=O)[C@@H]1C [RIF, rifampicin, reference compound]
- MIC [1, 20]: 0.39 to 0.78 µg/mL (≈ 0.474 to 0.948 µM)
- MIC [2, 20]: 6.25 to 12.5 µg/mL (≈ 7.59 to 15.2 µM)
- MIC [3, 20]: 0.0039 to 0.0078 µg/mL (≈ 0.00474 to 0.00948 µM)

Compound: C[C@@H](c1ncncc1F)[C@](O)(Cn1cncn1)c1ccc(F)cc1F [voriconazole, reference compound]
- MIC [4, 21]: > 16 µg/mL
- MIC [5, 22]: > 16 µg/mL
- MIC [6, 23]: 0.5 µg/mL
- MIC [7, 24]: > 16 µg/mL
- MIC [8, 25]: 8 µg/mL
- MIC [9, 26]: > 16 µg/mL
- MIC [10, 27]: > 16 µg/mL
- MIC [11, 28]: 1 µg/mL
